{
  "source": "patent US20170151152A1",
  "about": "“COMBINATION OF N-ACETYL GLUCOSAMINE WITH ABSCISIC ACID AND USES THEREOF” (priority 2015, published 2017)",
  "origin": "cited, not measured here",
  "tested_on": "cell cultures",
  "conditions": "1%, 3%, 5% of 30 μL of NAG",
  "data": [
    {"compound": "CC(=O)N[C@H]1C(O)O[C@H](CO)[C@@H](O)[C@@H]1O", "note": "(stereo partly shown) [NAG, N-acetyl glucosamine]", "values": [
      {"measurement": "melanin in cell cultures", "result": "dose dependent decrease in melanin"}
    ]}
  ]
}
